Values of other authors as cited in patent US20240000780A1, “PED5 INHIBITOR SEMI-SOLID COMPOSITIONS AND METHODS OF MAKING AND USING THEREOF” (Seattle Gummy Company, priority 2021, published 2024).

Details: ranking among alpha, beta, gamma cyclodextrins

| stability of complex formed with tadalafil | Compound |
| --- | --- |
| least stable | OC[C@H]1O[C@@H]2O[C@H]3[C@H](O)[C@@H](O)[C@@H](O[C@H]4[C@H](O)[C@@H](O)[C@@H](O[C@H]5[C@H](O)[C@@H](O)[C@@H](O[C@H]6[C@H](O)[C@@H](O)[C@@H](O[C@H]7[C@H](O)[C@@H](O)[C@@H](O[C@H]1[C@H](O)[C@H]2O)O[C@@H]7CO)O[C@@H]6CO)O[C@@H]5CO)O[C@@H]4CO)O[C@@H]3CO [alpha, alpha-cyclodextrin] |
| most stable complex | OC[C@H]1O[C@@H]2O[C@H]3[C@H](O)[C@@H](O)[C@@H](O[C@H]4[C@H](O)[C@@H](O)[C@@H](O[C@H]5[C@H](O)[C@@H](O)[C@@H](O[C@H]6[C@H](O)[C@@H](O)[C@@H](O[C@H]7[C@H](O)[C@@H](O)[C@@H](O[C@H]8[C@H](O)[C@@H](O)[C@@H](O[C@H]9[C@H](O)[C@@H](O)[C@@H](O[C@H]1[C@H](O)[C@H]2O)O[C@@H]9CO)O[C@@H]8CO)O[C@@H]7CO)O[C@@H]6CO)O[C@@H]5CO)O[C@@H]4CO)O[C@@H]3CO [gamma, gamma-cyclodextrin] |
